Publication PMC9489722, “Identification and development of a subtype-selective allosteric AKT inhibitor suitable for clinical development” (Scientific Reports, 2022)

What was measured:
[1] = test system: pGSK3β in PC3 prostate cancer cells; assay: pGSK3β ELISA in PC3 cells; assay type: cell-based; conditions: Homo sapiens, PC-3; PC3 cells, 24 h
Method: Cells were then washed with PBS and lysed. The subsequent supernatant was assayed using a GSK3β (pS9) (Invitrogen, Life Technologies) ELISA. Phospho-AKT levels were detected using the phospho-AKT (S473) immunoassay (R&D Systems) as per manufacturer’s protocol. Percentage inhibition of phosphorylation status was calculated by comparing phospho-AKT levels to total AKT levels with each treatment and IC50 values derived using non-linear regression on GraphPad Prism.

[2] = In vitro microsomal stability, mouse; assay type: in vitro ADME; conditions: pH 7.4; mouse liver microsomes; read-out: mouse LM CLint
Method: Compounds (final concentration = 1 µM; final DMSO concentration = 0.1%) were incubated in 0.1 M phosphate buffer at pH 7.4 with liver microsomes (human, mouse, rat or dog; 0.5 mg of protein/mL) at 37 °C. Reactions were started by addition of NADPH in 0.1 M phosphate buffer pH 7.4 (final concentration 1 mM). Reactions were quenched by addition of ice-cold methanol and frozen. The supernatants were analysed by LC/MS/MS on a Waters Acquity I-Class coupled to a Waters Xevo TQD mass spectrometer. A Waters BEH C18 2.1 × 50 mm 1.7 µm column was used and mobile phases consisted of water and methanol containing 0.1% formic acid as modifier. Analysis was by multiple reaction monitoring and conditions were optimised for each test compound.

CYP3A4 = CYP3A4 (Homo sapiens, UniProt P08684); assay: CYP3A4 inhibition; assay type: in vitro ADME; conditions: read-out: CYP IC50, 3A4
AKT2 = target: T1, AKT2 (Homo sapiens, UniProt P31751); assay: SelectScreen kinase selectivity profiling, AKT2; assay type: biochemical; conditions: read-out: % inhibition @ 10 µM, AKT2; 10 µM fixed concentration
T1 construct: purchased Signal Chem
Method: (§1) Off-target kinase activity was performed using the SelectScreen kinase profiling service against either mini 50 kinase or full 450 kinase panels using the Z’lyte and Adapta kinase activity platforms (performed by Thermofisher).

p38α = p38α (Homo sapiens, UniProt Q16539); assay: SelectScreen kinase selectivity profiling, p38α; assay type: biochemical
Method: as §1

MCF-7 cells [3] = assay: In vitro proliferation assay (CellTiter-Glo), MCF-7; assay type: cell-based; conditions: Homo sapiens, MCF7; MCF-7 cells (PI3KCA mutation), 72 h; read-out: anti-proliferative IC50, MCF-7
Method: (§2) MCF-7, T47D, NCI-H460, HCT116, LNCaP, A431, PC3, PANC-1, A549, HT29M, SKOV-3, Du145, HMEC-1, Hs888Lu, Hela, MDA-MB-231 and SW480 cells were obtained from American Type Culture Collection (ATCC). A2780, PNT2, U251MG, HFFF2 and Fr2 cells were obtained from Public Health England European Collection of Authenticated Cell Cultures (Phe ECACC). InMyoFib and NHLF cells were acquired from Lonza. Cells were then incubated with increasing concentration of inhibitor (1 nM to 100 µM) for 72 h at 37 °C. Cell viability was determined using the CellTiter-Glo Luminescent Cell Viability Assay (Promega). IC50 values were derived as previously stated.

normal cell lines = assay: In vitro proliferation assay (CellTiter-Glo), normal cell lines; assay type: cell-based; conditions: normal cell lines, 72 h; read-out: anti-proliferative IC50, normal cells
Method: as §2

MCF-7 cells [4] = assay: In vitro Incucyte live cell imaging proliferation assay; assay type: cell-based; conditions: MCF-7, 5 µM, 7d time course
Method: MCF-7 cells were obtained from American Type Culture Collection (ATCC). […] Cell confluency was measured over time using an Incucyte Zoom S3 using the basic analyser processing analysing tool. Percentage confluence values were calculated and IC50 values were derived as previously stated.

MCF-7 cells [5] = assay: Cell cycle flow cytometry; assay type: cell-based
Method: MCF-7 breast cancer cells were treated with increasing concentrations of ALM301 (0.1–100 µM) for 72 h. Post treatment, media containing detached cells was collected for each sample and the remaining adherent cells detached using 0.1% EDTA in PBS. Resulting cell suspensions were incorporated with associated media, centrifuged to form a pellet, washed with 1% FCS in PBS and fixed using ice-cold ethanol. Samples were stored at 4 °C for 24 h before staining with propidium iodide (10 µg/mL) (Sigma) containing 2.5 mg/mL RNase A (Qiagen) for 30 min at 37 °C and stored overnight at 4 °C before analysis. A minimum of 10,000 cells per sample were analysed for DNA content using a FACSCalibur flow cytometer and CellQuest Pro software (Becton Dickinson).

A549 xenografts = assay: Anti-tumour efficacy study in A549 lung cancer xenograft model; assay type: in vivo, mouse
Method: For efficacy in A549 xenografts, 90 male BALB/c nude mice aged 6–8 weeks and weighing approximately 20–26 g were inoculated subcutaneously in the right flank with 1 × 10^7 A549 tumour cells (ATCC) in 0.1 mL of PBS with Matrigel (1:1) to aid tumour development. When the mean tumour size reached approximately 150 mm^3, 10 mice were randomised to each experimental group, using a randomised block approach. Groups sizes were devised based on past experience of the provider. Treatment started on Day 11 after tumour inoculation with mice receiving ALM301 (either 10, 30 or 100 mg/kg) or vehicle control. Tumour size was measured twice weekly in two dimensions using a caliper, and the volume expressed in mm^3 using the formula: V = 0.5 (a × b^2), where a and b are the long and short diameters of the tumour, respectively.

MCF-7 xenografts = assay: Efficacy study in MCF-7 breast cancer xenograft model; assay type: in vivo; conditions: MCF-7 xenograft; for tumour regression: p.o.
Method: For efficacy in MCF-7 xenografts, 150 SCID female mice aged 6–8 weeks and weighing approximately 18–22 g were implanted with 1 × 10^7 MCF-7 tumour cells (ATCC) subcutaneously in the right flank. […] Once mean tumour size reached approximately 150 mm^3, mice were randomised to either control or treatment groups (n = 10/group) using a randomised block approach. Groups sizes were devised based on past experience of the provider. […] Tumour size was measured twice weekly in two dimensions using a caliper, and the volume expressed in mm^3 using the formula: V = 0.5 (a x b^2), where a and b are the long and short diameters of the tumour, respectively.

Chain of p38α (Q16539 whole entry): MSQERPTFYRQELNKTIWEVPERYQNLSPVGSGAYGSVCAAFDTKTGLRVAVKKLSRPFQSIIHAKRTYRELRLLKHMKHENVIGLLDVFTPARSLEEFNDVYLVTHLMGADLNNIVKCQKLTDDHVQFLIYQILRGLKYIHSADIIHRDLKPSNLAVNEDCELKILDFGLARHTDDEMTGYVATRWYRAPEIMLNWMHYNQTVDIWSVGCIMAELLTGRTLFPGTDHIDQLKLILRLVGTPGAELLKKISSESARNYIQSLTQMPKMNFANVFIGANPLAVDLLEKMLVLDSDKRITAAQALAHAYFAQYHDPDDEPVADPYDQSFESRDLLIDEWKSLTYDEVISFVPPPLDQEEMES
Chain of CYP3A4 (P08684 whole entry): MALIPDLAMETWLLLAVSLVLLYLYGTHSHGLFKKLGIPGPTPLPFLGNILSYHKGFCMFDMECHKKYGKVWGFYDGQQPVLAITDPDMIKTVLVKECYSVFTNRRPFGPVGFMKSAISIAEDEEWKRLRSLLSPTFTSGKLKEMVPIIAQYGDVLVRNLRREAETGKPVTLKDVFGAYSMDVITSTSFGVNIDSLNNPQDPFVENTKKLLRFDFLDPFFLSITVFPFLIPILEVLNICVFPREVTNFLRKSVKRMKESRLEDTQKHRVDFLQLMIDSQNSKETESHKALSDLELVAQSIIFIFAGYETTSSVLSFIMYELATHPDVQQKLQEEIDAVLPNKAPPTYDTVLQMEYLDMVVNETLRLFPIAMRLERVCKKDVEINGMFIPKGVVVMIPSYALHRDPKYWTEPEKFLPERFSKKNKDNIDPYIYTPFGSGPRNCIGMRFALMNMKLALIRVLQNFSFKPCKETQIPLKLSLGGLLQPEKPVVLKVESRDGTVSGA
T1 sequence (P31751 whole entry): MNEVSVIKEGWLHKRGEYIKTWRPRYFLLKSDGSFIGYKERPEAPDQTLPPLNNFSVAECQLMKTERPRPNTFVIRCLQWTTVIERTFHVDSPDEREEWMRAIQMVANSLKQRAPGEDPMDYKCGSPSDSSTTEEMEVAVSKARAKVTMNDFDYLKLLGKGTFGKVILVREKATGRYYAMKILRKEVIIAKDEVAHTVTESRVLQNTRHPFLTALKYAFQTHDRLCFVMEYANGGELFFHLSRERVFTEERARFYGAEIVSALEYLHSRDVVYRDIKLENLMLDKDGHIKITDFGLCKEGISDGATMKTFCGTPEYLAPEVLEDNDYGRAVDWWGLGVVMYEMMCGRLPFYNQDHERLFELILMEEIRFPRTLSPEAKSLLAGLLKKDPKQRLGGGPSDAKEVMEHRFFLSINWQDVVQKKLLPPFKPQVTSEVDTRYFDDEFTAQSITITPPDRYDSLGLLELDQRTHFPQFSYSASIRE

## CCN1C(=O)COc2nc(-c3ccc([C@]4(N)C[C@@H](O)C4)cc3)c(-c3ccccc3)cc21 [ALM301, 6-(4-((1S,3S)-1-amino-3-hydroxycyclobutyl)phenyl)-1-ethyl-7-phenyl-1H-pyrido[2,3-b][1,4]oxazin-2(3H)-one]
[1]
  IC50: 160 nM
[2]
  microsomal CLint at 1 µM: 6 µL/min/mg
CYP3A4
  IC50: > 25 µM
AKT2
  inhibition at 10 µM: 89%
p38α; 10-point titration curve
  IC50: > 10 µM
p38α; read-out: % inhibition @ 10 µM, p38α, 10 µM fixed concentration
  inhibition at 10 µM: 84%
MCF-7 cells [3]
  IC50: 2250 nM
Normal cell lines
  IC50: > 20 µM
MCF-7 cells [4]
  cell proliferation by live cell imaging: completely abrogated cell proliferation
MCF-7 cells [5]; MCF-7, 0.1–100 µM, 72 h
  sub-G0 population (cell-cycle analysis): increase of sub-G0 population in a concentration dependent manner
MCF-7 cells [5]; MCF-7, ALM301 in combination with tamoxifen
  increase in sub-G0 population compared to ALM301 alone: 4.5 ×
A549 xenografts; 100 mg/kg dosing group, recovered after every other day dosing
  tolerability / body weight: Moderate bodyweight loss
A549 xenografts; 10 and 30 mg/kg dose groups
  tolerability / body weight: no body weight loss or adverse effects observed
A549 xenografts; p.o. 10 mg/kg q.d. × 28
  tumour growth inhibition (TGI): 23%
A549 xenografts; p.o. 30 mg/kg q.d. × 28
  tumour growth inhibition (TGI): 31%
A549 xenografts; p.o. 100 mg/kg q.d × 3 then q.o.d. × 25
  tumour growth inhibition (TGI): 41%
MCF-7 xenografts; ALM301 3 mg/kg q.d. in combination with tamoxifen 5 mg/kg q.d.
  tumour regression: 57%
MCF-7 xenografts; ALM301 10 mg/kg q.d. in combination with tamoxifen 5 mg/kg q.d.
  tumour regression: 50%
MCF-7 xenografts; monotherapy and in combination with tamoxifen, any dose levels
  tolerability / animal body weight: no significant effects on animal body weight
MCF-7 xenografts; p.o. 3 or 10 mg/kg once-a-day
  tumour growth inhibition, single agent: minimal tumour growth inhibition
